{"source": "patent US10757935B2", "about": "“Composition comprising a pesticide and an alkoxylated ester” (BASF SE, priority 2015, dated 2020)", "key": {"[1]": {"tested_on": "powdery mildew (Blumeria graminis f. sp. hordei)", "experiment": "Curative greenhouse trial with Epoxiconazole on barley", "format": "in vivo", "settings": "barley leaf segments (F and F-1) on benzimidazole agar, inoculation 2 days prior to application, Epoxiconazole 5 g/ha, adjuvant 50 ml/ha, assessment 14 DAT", "method": "(§1) The influence of the adjuvants was tested separately in a curative and protective greenhouse trial on barley. In each case, barley was cultivated in a substrate “Frustorder Erde” for three weeks with three plants per pot. Each treatment was replicated 14 times. The adjuvant dose rate in each treatment was 50 ml/ha. The assessment of the infection rate was conducted by a trained biologist.\n(§2) The adjuvants used in the trials are di-isononanyl-adipate cyclohexanedicarboxylic acid-isononanol-diester, 1,2-cyclohexanediol-di-isononate, di-isononanyl-3EO-adipate, cyclohexanedicarboxylic acid-isononanol-3EO-diester and 1,2-cyclohexanediol-6EO-di-isononate.\nAn Epoxiconazole SC 250 was used. Inoculation of the leaves with powdery mildew (Blumeria graminis f. sp. hordei) was done 2 days prior to application of the Epoxiconazole formulation. From the stem, 15 leaf segments were cut off with a length of 10 cm using each the flag leaf (F) and the 2nd leaf (F-1). Altogether, the leaves of each were placed on benzimidazole agar i.e. 0.5% Agar with 40 ppm benzimidazole. The concentration of Epoxiconazole for the leaf application was 5 g/ha. Assessment was done 14 days after treatment (14 DAT) of the efficacy against powdery mildew by counting the mildew pustules per leaf on a length of 7 cm."}, "[2]": {"tested_on": "powdery mildew (Blumeria graminis f. sp. hordei)", "experiment": "Protective greenhouse trial with Azoxystrobin on barley", "format": "in vivo", "settings": "barley leaf segments (F and F-1) on agar cut 4 h after application, then inoculated, Azoxystrobin 5 g/ha, adjuvant 50 ml/ha, incubation time 10 d", "method": "as §1, §2\n4 h after application with the equivalent of 5 g/ha Azoxystrobin, leaf segments were cut off at a length of 7 cm from the stem. 15 leaves of each the F and the F-1 leaf were placed on agar. After the inoculation with powdery mildew (Blumeria graminis f. sp. hordei), the incubation time was 10 d. The assessment of the infection rate was conducted by a trained biologist."}}}
{"smiles": "Fc1ccc([C@]2(Cn3cncn3)O[C@H]2c2ccccc2Cl)cc1", "note": "(racemic) [Epoxiconazole]", "values": [{"measurement": "Powdery mildew infestation (%)", "setting": "[1]", "value": 33, "unit": "%"}]}
{"smiles": "CO/C=C(/C(=O)OC)c1ccccc1Oc1cc(Oc2ccccc2C#N)ncn1", "note": "[Azoxystrobin]", "values": [{"measurement": "Powdery mildew infestation (%)", "setting": "[2]", "value": 36, "unit": "%"}]}
